{"source": "patent US9598410B2", "about": "“Substituted 4,5,6,7-tetrahydro-1H-pyrazolo[4,3-C]pyridines, their use as medicament, and pharmaceutical preparations comprising them” (SANOFI, priority 2011, dated 2017)", "target": "Human TASK-1 channels (Homo sapiens (Human), UniProt O14649)", "sequence (O14649 whole entry, the tested form may be a part)": "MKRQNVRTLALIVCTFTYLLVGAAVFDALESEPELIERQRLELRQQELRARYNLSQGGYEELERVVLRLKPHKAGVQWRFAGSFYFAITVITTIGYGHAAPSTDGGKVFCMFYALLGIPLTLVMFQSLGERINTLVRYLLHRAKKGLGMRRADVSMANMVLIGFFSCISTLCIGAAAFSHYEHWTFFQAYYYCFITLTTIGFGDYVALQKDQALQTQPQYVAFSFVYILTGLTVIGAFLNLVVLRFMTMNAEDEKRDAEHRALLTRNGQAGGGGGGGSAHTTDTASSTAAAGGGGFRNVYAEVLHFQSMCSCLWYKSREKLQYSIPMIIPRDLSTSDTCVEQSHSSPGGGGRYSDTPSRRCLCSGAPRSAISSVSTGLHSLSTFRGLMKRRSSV", "assay": "Activity on the TASK-1 channel in Xenopus oocytes (two-microelectrode voltage clamp)", "assay_type": "cell-based", "conditions": "percentage inhibition of TASK-1 control current", "procedure": "Human TASK-1 channels were expressed in Xenopus oocytes. […] Subsequently, TASK-1-encoding RNA synthesized in vitro was injected into oocytes. […] Oocytes were continuously superfused with ND96 buffer containing: NaCl 96 mM, KCl 2 mM, CaCl2 1.8 mM, MgCl2 1 mM, HEPES 5 mM (pH adjusted to 7.4 with NaOH). All experiments were performed at room temperature.\nIC50 values were obtained by fitting the data to the general dose-response equation."}
{"molecule": "COc1ccnc(Cn2nc(-c3cccc(C(F)(F)F)c3)c3c2CCN(C(C)=O)C3)c1", "note": "[Example 6q, 1-[1-(4-Methoxy-pyridin-2-ylmethyl)-3-(3-trifluoromethyl-phenyl)-1,4,6,7-tetrahydro-pyrazolo[4,3-c]pyridin-5-yl]-ethanone]", "values": [{"measurement": "Inhibition (%) at 5 μM", "value": 70, "unit": "%"}]}
